In one test the target is adrenomedullin receptor (Homo sapiens, UniProt O60895+Q16602). In words: adrenomedullin (ADM) receptor binding assay. The following applies: Table 6.
The target of a further test is T1, calcitonin receptor (Rattus norvegicus, UniProt P32214).
T1 sequence (P32214 25-516): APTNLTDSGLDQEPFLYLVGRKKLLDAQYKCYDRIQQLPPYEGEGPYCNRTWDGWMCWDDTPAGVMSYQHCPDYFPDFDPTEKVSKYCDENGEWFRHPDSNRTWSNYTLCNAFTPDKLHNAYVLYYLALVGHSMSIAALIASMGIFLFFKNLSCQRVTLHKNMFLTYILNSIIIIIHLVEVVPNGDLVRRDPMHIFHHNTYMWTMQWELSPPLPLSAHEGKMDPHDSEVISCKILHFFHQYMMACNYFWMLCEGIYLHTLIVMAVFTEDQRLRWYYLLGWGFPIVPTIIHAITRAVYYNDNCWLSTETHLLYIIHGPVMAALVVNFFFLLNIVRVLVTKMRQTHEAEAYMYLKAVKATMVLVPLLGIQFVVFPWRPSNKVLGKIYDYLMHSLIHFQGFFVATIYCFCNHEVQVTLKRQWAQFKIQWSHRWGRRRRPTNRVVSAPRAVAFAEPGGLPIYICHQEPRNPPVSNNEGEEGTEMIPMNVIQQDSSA
In words: calcitonin receptor binding assay (rCalcitonin RBA). Particulars: Table 6; read-out: CT receptor binding.

We go through ten compounds from patent US7928060B2, “Amylin family polypeptide-6 (AFP-6) analogs and methods of making and using them” (Amylin Pharmaceuticals, Inc., priority 2004, dated 2011).

Bridge positions count the residues as written; N and C are the ends. Ends that are not written are not given here. Peptide text beside a SMILES is read from it. Bounds are passed on as bounds.

adrenomedullin receptor, sequence (Q16602 23-461): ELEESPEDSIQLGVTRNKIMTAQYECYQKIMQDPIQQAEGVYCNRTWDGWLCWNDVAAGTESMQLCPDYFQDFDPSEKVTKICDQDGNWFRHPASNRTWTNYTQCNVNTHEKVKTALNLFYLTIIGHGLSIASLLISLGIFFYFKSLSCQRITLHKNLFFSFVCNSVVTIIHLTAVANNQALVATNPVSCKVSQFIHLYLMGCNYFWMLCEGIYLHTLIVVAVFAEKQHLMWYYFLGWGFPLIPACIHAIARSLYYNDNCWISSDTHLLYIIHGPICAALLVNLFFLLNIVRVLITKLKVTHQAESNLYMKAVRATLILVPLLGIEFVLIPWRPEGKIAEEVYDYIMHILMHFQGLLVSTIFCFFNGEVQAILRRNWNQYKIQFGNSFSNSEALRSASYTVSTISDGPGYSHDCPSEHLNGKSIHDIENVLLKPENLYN
adrenomedullin receptor, sequence (O60895 43-175): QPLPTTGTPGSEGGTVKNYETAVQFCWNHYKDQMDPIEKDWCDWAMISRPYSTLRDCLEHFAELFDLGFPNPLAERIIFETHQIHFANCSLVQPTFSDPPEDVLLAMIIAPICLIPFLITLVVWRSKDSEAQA

As to `CC(C)C[C@H](NC(=O)[C@H](CCC(N)=O)NC(=O)[C@H](C)NC(=O)[C@H](CCC(N)=O)NC(=O)[C@@H](N)[C@@H](C)O)C(=O)N[C@@H](CC(C)C)C(=O)N[C@@H](CCCNC(=N)N)C(=O)N[C@H](C(=O)NCC(=O)N[C@H]1CSSC[C@@H](C(=O)N[C@@H](CCC(N)=O)C(=O)N[C@H](C(=O)N[C@@H](CCC(N)=O)C(=O)N[C@@H](CC(N)=O)C(=O)N[C@@H](CC(C)C)C(=O)N[C@@H](CO)C(=O)N[C@@H](Cc2c[nH]cn2)C(=O)N[C@@H](CCCNC(=N)N)C(=O)N[C@@H](CC(C)C)C(=O)N[C@@H](Cc2c[nH]c3ccccc23)C(=O)N[C@@H](CCC(N)=O)C(=O)N[C@@H](CC(C)C)C(=O)N[C@@H](CC(=O)O)C(=O)N[C@@H](CO)C(=O)N[C@@H](C)C(=O)N2CCC[C@H]2C(=O)N[C@H](C(=O)N[C@@H](CC(=O)O)C(=O)N2CCC[C@H]2C(=O)N[C@@H](CO)C(=O)N[C@@H](CO)C(=O)N2CCC[C@H]2C(=O)N[C@@H](Cc2c[nH]cn2)C(=O)N[C@@H](CO)C(=O)N[C@@H](Cc2ccc(O)cc2)C(N)=O)C(C)C)C(C)C)NC(=O)[C@H]([C@@H](C)O)NC(=O)CNC(=O)[C@H](CC(C)C)NC(=O)[C@H](C(C)C)NC1=O)C(C)C` [compound 17] (H-TQAQLLRVGCVLGTCQVQNLSHRLWQLDSAPVDPSSPHSY-NH2; disulfide 10-15 (inferred); N-terminus assumed), the IC50 on adrenomedullin receptor was 0.304 µM; at calcitonin receptor, more than 1 µM. For `CC(C)C[C@H](NC(=O)[C@H](CCC(N)=O)NC(=O)[C@H](Cc1c[nH]c2ccccc12)NC(=O)[C@H](CC(C)C)NC(=O)[C@H](CCCNC(=N)N)NC(=O)[C@H](Cc1c[nH]cn1)NC(=O)[C@H](CO)NC(=O)[C@H](CC(C)C)NC(=O)[C@H](CC(N)=O)NC(=O)[C@H](CCC(N)=O)NC(=O)[C@@H](NC(=O)[C@H](CCC(N)=O)NC(=O)[C@@H]1CSSC[C@H](N)C(=O)N[C@@H](C(C)C)C(=O)N[C@@H](CC(C)C)C(=O)NCC(=O)N[C@@H]([C@@H](C)O)C(=O)N1)C(C)C)C(=O)N[C@@H](CCCNC(=N)N)C(=O)N[C@@H](CCC(N)=O)C(=O)N[C@@H](CCC(=O)O)C(=O)N[C@@H](CO)C(=O)N[C@@H](C)C(=O)N1CCC[C@H]1C(=O)N[C@H](C(=O)N[C@@H](CCC(=O)O)C(=O)N1CCC[C@H]1C(=O)N[C@@H](CO)C(=O)N[C@@H](CO)C(=O)N1CCC[C@H]1C(=O)N[C@@H](Cc1c[nH]cn1)C(=O)N[C@@H](CO)C(=O)N[C@@H](Cc1ccc(O)cc1)C(N)=O)C(C)C` [compound 19] (H-CVLGTCQVQNLSHRLWQLRQESAPVEPSSPHSY-NH2; disulfide 1-6 (inferred); N-terminus assumed), in that order: not below 1 µM and 0.247 µM.

With `CC(C)C[C@H](NC(=O)[C@H](CCC(N)=O)NC(=O)[C@H](Cc1c[nH]c2ccccc12)NC(=O)[C@H](CC(C)C)NC(=O)[C@H](CCCNC(=N)N)NC(=O)[C@H](Cc1c[nH]cn1)NC(=O)[C@H](CO)NC(=O)[C@H](CC(C)C)NC(=O)[C@H](CC(N)=O)NC(=O)[C@H](CCC(N)=O)NC(=O)[C@@H](NC(=O)[C@H](CCC(N)=O)NC(=O)[C@@H]1CSSC[C@H](NC(=O)CNC(=O)[C@@H](N)C(C)C)C(=O)N[C@@H](C(C)C)C(=O)N[C@@H](CC(C)C)C(=O)NCC(=O)N[C@@H]([C@@H](C)O)C(=O)N1)C(C)C)C(=O)N[C@@H](CCCNC(=N)N)C(=O)N[C@@H](CCC(N)=O)C(=O)N[C@@H](CC(=O)O)C(=O)N[C@@H](CO)C(=O)N[C@@H](C)C(=O)N1CCC[C@H]1C(=O)N[C@H](C(=O)N[C@@H](CC(=O)O)C(=O)N1CCC[C@H]1C(=O)N[C@@H](CO)C(=O)N[C@@H](CO)C(=O)N1CCC[C@H]1C(=O)N[C@@H](Cc1c[nH]cn1)C(=O)N[C@@H](CO)C(=O)N[C@@H](Cc1ccc(O)cc1)C(N)=O)C(C)C` [compound 18] (H-VGCVLGTCQVQNLSHRLWQLRQDSAPVDPSSPHSY-NH2; disulfide 3-8 (inferred); N-terminus assumed), the IC50 on adrenomedullin receptor was not below 1 µM; at calcitonin receptor, 0.024 µM. For the compound `CSCC[C@H](NC(=O)[C@H](CC(C)C)NC(=O)[C@H](CCC(N)=O)NC(=O)[C@H](Cc1c[nH]c2ccccc12)NC(=O)[C@H](CC(C)C)NC(=O)[C@H](CCCNC(=N)N)NC(=O)[C@H](Cc1c[nH]cn1)NC(=O)[C@H](CO)NC(=O)[C@H](CC(C)C)NC(=O)[C@H](CC(N)=O)NC(=O)[C@H](CCC(N)=O)NC(=O)[C@@H](NC(=O)[C@H](CCC(N)=O)NC(=O)[C@@H]1CSSC[C@H](NC(=O)CNC(=O)[C@@H](NC(=O)[C@@H](N)CCCNC(=N)N)C(C)C)C(=O)N[C@@H](C(C)C)C(=O)N[C@@H](CC(C)C)C(=O)NCC(=O)N[C@@H]([C@@H](C)O)C(=O)N1)C(C)C)C(=O)NCC(=O)N1CCC[C@H]1C(=O)N[C@@H](C)C(=O)NCC(=O)N[C@@H](CCCNC(=N)N)C(=O)N[C@@H](CCC(N)=O)C(=O)N[C@@H](CC(=O)O)C(=O)N[C@@H](CO)C(=O)N[C@@H](C)C(=O)N1CCC[C@H]1C(=O)N[C@H](C(=O)N[C@@H](CC(=O)O)C(=O)N1CCC[C@H]1C(=O)N[C@@H](CO)C(=O)N[C@@H](CO)C(=O)N1CCC[C@H]1C(=O)N[C@@H](Cc1c[nH]cn1)C(=O)N[C@@H](CO)C(=O)N[C@@H](Cc1ccc(O)cc1)C(N)=O)C(C)C` [compound 10], the IC50 at adrenomedullin receptor was found to be 0.0071 µM; on calcitonin receptor, 0.055 µM. For `CSCC[C@H](NC(=O)[C@H](CC(C)C)NC(=O)[C@H](CCC(N)=O)NC(=O)[C@H](Cc1c[nH]c2ccccc12)NC(=O)[C@H](CC(C)C)NC(=O)[C@H](CCCNC(=N)N)NC(=O)[C@H](Cc1c[nH]cn1)NC(=O)[C@H](CO)NC(=O)[C@H](CC(C)C)NC(=O)[C@H](CC(N)=O)NC(=O)[C@H](CCC(N)=O)NC(=O)[C@@H](NC(=O)[C@H](CCC(N)=O)NC(=O)[C@@H]1CSSC[C@H](NC(=O)CN)C(=O)N[C@@H](C(C)C)C(=O)N[C@@H](CC(C)C)C(=O)NCC(=O)N[C@@H]([C@@H](C)O)C(=O)N1)C(C)C)C(=O)NCC(=O)N1CCC[C@H]1C(=O)N[C@@H](C)C(=O)NCC(=O)N[C@@H](CCCNC(=N)N)C(=O)N[C@@H](CCC(N)=O)C(=O)N[C@@H](CC(=O)O)C(=O)N[C@@H](CO)C(=O)N[C@@H](C)C(=O)N1CCC[C@H]1C(=O)N[C@H](C(=O)N[C@@H](CC(=O)O)C(=O)N1CCC[C@H]1C(=O)N[C@@H](CO)C(=O)N[C@@H](CO)C(=O)N1CCC[C@H]1C(=O)N[C@@H](Cc1c[nH]cn1)C(=O)N[C@@H](CO)C(=O)N[C@@H](Cc1ccc(O)cc1)C(N)=O)C(C)C` [compound 11] (H-GCVLGTCQVQNLSHRLWQLMGPAGRQDSAPVDPSSPHSY-NH2; disulfide 2-7 (inferred); N-terminus assumed), in that order: 0.011 µM and 0.027 µM. Consider “TQAQLLRVGCVLGTCQVQNLSHRLWQLRQDSAPVDPSSPHSY-NH2 (disulfide 10-15 (inferred)) [compound 16]”, for which the IC50 is not below 1 µM on adrenomedullin receptor and 0.022 µM on calcitonin receptor.

Regarding “H-GMVLGTMQVQNLSHRLWQLMGPAGRQDSAPVDPSSPHSY-NH2 [compound 26]”, the figures for the IC50 on adrenomedullin receptor and at calcitonin receptor were 0.037 µM and more than 1 µM, respectively. Take “TQAQLLRVGCNTATCQVQNLSHRLWQLMGPAGRQDSAPVDPSSPHSY-NH2 (disulfide 10-15 (inferred)) [compound 21]”: the IC50 on adrenomedullin receptor worked out at 0.047 µM; at calcitonin receptor, 0.017 µM. In the case of `CSCC[C@H](NC(=O)[C@H](CC(C)C)NC(=O)[C@H](CCC(N)=O)NC(=O)[C@H](Cc1c[nH]c2ccccc12)NC(=O)[C@H](CC(C)C)NC(=O)[C@H](CCCNC(=N)N)NC(=O)[C@H](Cc1c[nH]cn1)NC(=O)[C@H](CO)NC(=O)[C@H](CC(C)C)NC(=O)[C@H](CC(N)=O)NC(=O)[C@H](CCC(N)=O)NC(=O)[C@@H](NC(=O)[C@H](CCC(N)=O)NC(=O)[C@@H]1CSSC[C@H](N)C(=O)N[C@@H](C(C)C)C(=O)N[C@@H](CC(C)C)C(=O)NCC(=O)N[C@@H]([C@@H](C)O)C(=O)N1)C(C)C)C(=O)NCC(=O)N1CCC[C@H]1C(=O)N[C@@H](C)C(=O)NCC(=O)N[C@@H](CCCNC(=N)N)C(=O)N[C@@H](CCC(N)=O)C(=O)N[C@@H](CC(=O)O)C(=O)N[C@@H](CO)C(=O)N[C@@H](C)C(=O)N1CCC[C@H]1C(=O)N[C@H](C(=O)N[C@@H](CC(=O)O)C(=O)N1CCC[C@H]1C(=O)N[C@@H](CO)C(=O)N[C@@H](CO)C(=O)N1CCC[C@H]1C(=O)N[C@@H](Cc1c[nH]cn1)C(=O)N[C@@H](CO)C(=O)N[C@@H](Cc1ccc(O)cc1)C(N)=O)C(C)C` [compound 12] (H-CVLGTCQVQNLSHRLWQLMGPAGRQDSAPVDPSSPHSY-NH2; disulfide 1-6 (inferred); N-terminus assumed), the IC50 on adrenomedullin receptor worked out at 0.018 µM; at calcitonin receptor, 0.198 µM. With `CC(C)C[C@H](NC(=O)[C@H](CCC(N)=O)NC(=O)[C@H](Cc1c[nH]c2ccccc12)NC(=O)[C@H](CC(C)C)NC(=O)[C@H](CCCNC(=N)N)NC(=O)[C@H](Cc1c[nH]cn1)NC(=O)[C@H](CO)NC(=O)[C@H](CC(C)C)NC(=O)[C@H](CC(N)=O)NC(=O)[C@H](CCC(N)=O)NC(=O)[C@@H](NC(=O)[C@H](CCC(N)=O)NC(=O)[C@@H]1CSSC[C@H](NC(=O)CN)C(=O)N[C@@H](CO)C(=O)N[C@@H](CC(N)=O)C(=O)N[C@@H](CC(C)C)C(=O)N[C@@H](CO)C(=O)N[C@@H]([C@@H](C)O)C(=O)N1)C(C)C)C(=O)N[C@@H](CCCNC(=N)N)C(=O)N[C@@H](CCC(N)=O)C(=O)N[C@@H](CC(=O)O)C(=O)N[C@@H](CO)C(=O)N[C@@H](C)C(=O)N1CCC[C@H]1C(=O)N[C@H](C(=O)N[C@@H](CCC(=O)O)C(=O)N1CCC[C@H]1C(=O)N[C@@H](CO)C(=O)N[C@@H](CO)C(=O)N1CCC[C@H]1C(=O)N[C@@H](Cc1c[nH]cn1)C(=O)N[C@@H](CO)C(=O)N[C@@H](Cc1ccc(O)cc1)C(N)=O)C(C)C` [compound 38] (H-GCSNLSTCQVQNLSHRLWQLRQDSAPVEPSSPHSY-NH2; disulfide 2-8 (inferred); N-terminus assumed), the IC50 at calcitonin receptor worked out at 0.017 µM.
